Measurements: patent US5776742A, “Aldehyde dehydrogenase enzyme” (Roche Vitamins Inc., priority 1996, dated 1998)
Values joined by “and” are separate entries in the source; they are usually repeats but may differ in a detail not shown here. Equal entries are not always repeated. “Also recorded” adds a separate entry of the source. Where two headings read alike, the source gives them in different places.

Key:
[1] = molecular target: T1, aldehyde dehydrogenase (ADH) (Ketogulonicigenium vulgare, UniProt F9Y7W8); experiment: Effects of metal ions, enzyme inhibitors and PQQ on the activity of ADH; format: biochemical, Gluconobacter oxydans DSM 4025 (FERM BP-3812); conditions: for inhibition at 1870 µM: read-out: inhibition of the activity
T1 sequence (F9Y7W8 1-429): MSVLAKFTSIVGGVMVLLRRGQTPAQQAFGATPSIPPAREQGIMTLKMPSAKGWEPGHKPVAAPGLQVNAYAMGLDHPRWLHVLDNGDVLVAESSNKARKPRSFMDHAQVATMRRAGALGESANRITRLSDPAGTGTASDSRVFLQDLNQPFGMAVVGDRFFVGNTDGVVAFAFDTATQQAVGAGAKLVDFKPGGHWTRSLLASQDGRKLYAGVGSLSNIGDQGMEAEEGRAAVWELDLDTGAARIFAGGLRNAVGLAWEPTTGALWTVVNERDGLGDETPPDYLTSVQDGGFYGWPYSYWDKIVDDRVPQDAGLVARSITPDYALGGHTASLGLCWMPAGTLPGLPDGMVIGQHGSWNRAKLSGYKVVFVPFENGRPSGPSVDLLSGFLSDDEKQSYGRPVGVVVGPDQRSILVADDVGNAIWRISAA

[2] = molecular target: T1, aldehyde dehydrogenase (ADH); experiment: Electron acceptor suitability for L-sorbosone oxidation; format: biochemical, Gluconobacter oxydans DSM 4025 (FERM BP-3812); conditions: oxidation of L-sorbosone to 2-keto-L-gulonic acid
[3] = molecular target: T1, aldehyde dehydrogenase (ADH); experiment: Substrate specificity of the ADH; conditions: for activity at 100000 µM: read-out: Relative activity (%)
[4] = compound 0.950 mM, None = 100, read-out: Relative activity (%)
[5] = compound 1.870 mM, None = 100, read-out: Relative activity (%)
[6] = read-out: Relative activity (%)

`[Zn+2]` [Zn^2+] was tested, and the “effect on the enzyme activity (in words)” value [1] was “inhibited; also recorded: Inhibition”.

In the case of `O.O.O.O.O.O.O.O=[As]([O-])([O-])O.[Na+].[Na+]` [Na2 HAsO4.7H2 O, reference compound], the “Relative activity (%)” value ([1]; compound 0.950 mM, None = 100) is reported as 100% and the “Relative activity (%)” value ([1]; compound 1.870 mM, None = 100) is reported as 107.1%.

For `C[n+]1c2ccccc2nc2ccccc21` [phenazine methosulfate], the “suitability as electron acceptor (in words)” value (shortened to “suitability”) [2] was “oxidizes L-sorbosone to 2-keto-L-gulonic acid in the presence of electron acceptors”.

For `CC(C)O` [iso-Propanol], the activity at 100000 µM [3] was 0%.

With `O=C(O)c1cc(C(=O)O)c2c(n1)C(=O)C(=O)c1cc(C(=O)O)[nH]c1-2` [PQQ, pyrroloquinoline quinone, reference compound] the “effect on the enzyme activity (in words)” value [1] was “Stimulator”, the activation at 10 µM ([1]; 0.01 mM, read-out: stimulation of the activity) was about 50% and the activity at 10 µM ([1]; compound 0.01 mM, None = 100, read-out: Relative activity (%)) was 148%.

For `[Cl][Ti]([Cl])([Cl])[Cl]` [TiCl4], the “Relative activity (%)” value ([1]; metal 0.19 mM, None = 100) was 100% and the “Relative activity (%)” value ([1]; metal 0.374 mM, None = 100) was 80%.

In the case of `O=CC(O)CO` (racemic) [D,L-Glyceraldehyde], the activity at 100000 µM [3] is reported as 789% and the “relative activity, times higher than that for L-sorbosone” value ([3]; substrate vs L-sorbosone) is reported as “about 8 times”.

In the case of `[Na+].[Na+].[O]=[Mo](=[O])([O-])[O-]` [Mo^6+], the “effect on the enzyme activity (in words)” value [1] is reported as “inhibited”.

`CCN1C(=O)C=CC1=O` [N-Ethylmaleimide, reference compound] showed an inhibition at 1870 µM ([1]; 1.87 mM) of 24%, an activity at 950 µM [1, 4] of 94.1% and an activity at 1870 µM [1, 5] of 76.5%.

In the case of cytochrome c, the “suitability” value [2] is reported as “oxidizes L-sorbosone to 2-keto-L-gulonic acid in the presence of electron acceptors”.

`[Ca+2]` [Ca^2+] was tested, and the “effect on the enzyme activity (in words)” value [1] was “Stimulator”.

For `NC(=O)c1ccc[n+]([C@@H]2O[C@H](COP(=O)([O-])OP(=O)(O)OC[C@H]3O[C@@H](n4cnc5c(N)ncnc54)[C@H](O)[C@@H]3O)[C@@H](O)[C@H]2O)c1` [nicotine amide adenine dinucleotide], the “suitability” value [2] was “not suitable”.

`O=C(O)CI` [Monoiodoacetate, reference compound] showed an activity at 950 µM [1, 6] of 93.7%, an activity at 1870 µM [1, 6] of 87.3% and an inhibition at 1870 µM [1] of 13%.

`[F-].[Na+]` [Sodium fluoride, reference compound] was tested, and the “Relative activity (%)” value [1] was 100% and 105.8%.

For `O.O.[Na+].[Na+].[O]=[Mo](=[O])([O-])[O-]` [Na2 MoO4.2H2 O], the “Relative activity (%)” value ([1]; metal 0.19 mM, None = 100) was 69.7% and the “Relative activity (%)” value ([1]; metal 0.374 mM, None = 100) was 42.1%.

In the case of `O=C[C@H](O)[C@@H](O)[C@H](O)[C@H](O)CO` [D-Glucose], the “relative activity, times higher than that for L-sorbosone” value [3] is reported as about 2 times and the activity at 100000 µM [3] is reported as 189%.

In the case of `OC[C@@H](O)[C@@H](O)[C@H](O)[C@@H](O)CO` [D-Sorbitol], the activity at 100000 µM [3] is reported as 0%.

In the case of `O.O.O.O.O.O.O.O=S(=O)([O-])[O-].[Mg+2]` [MgSO4.7H2 O], the “Relative activity (%)” value ([1]; metal 0.19 mM, None = 100) is reported as 79.3% and the “Relative activity (%)” value ([1]; metal 0.374 mM, None = 100) is reported as 39.9%.

`O.O.O.O.O=[N+]([O-])[O-].O=[N+]([O-])[O-].[Ca+2]` [Ca(NO3)2.4H2 O] was tested, and the “Relative activity (%)” value ([1]; metal 0.0387 mM, None = 100) was 294% and the “Relative activity (%)” value ([1]; metal 0.19 mM, None = 100) was 450%.

With `O.O.O.O.O.O.O.O=S(=O)([O-])[O-].[Zn+2]` [ZnSO4.7H2 O] the “Relative activity (%)” value ([1]; metal 0.374 mM, None = 100) was 32.6%.

`[Ni+2]` [Ni^2+] was tested, and the “effect on the enzyme activity (in words)” value [1] was “inhibited; also recorded: Inhibition”.

For `O.O=S(=O)([O-])[O-].O=S(=O)([O-])[O-].O=S(=O)([O-])[O-].[Fe+3].[Fe+3]` [Fe2 (SO4)3.nH2 O], the “Relative activity (%)” value ([1]; metal 0.0387 mM, None = 100) was 100%, the “Relative activity (%)” value ([1]; metal 0.228 mM, None = 100) was 64.0% and the “Relative activity (%)” value ([1]; metal 0.374 mM, None = 100) was 44.9%. For the same compound, the “Relative activity (%)” value ([1]; metal 0.41 mM, None = 100) was 30.4%.

`C=C[C@H]1C[N@@]2CC[C@H]1C[C@H]2[C@H](O)c1ccnc2ccc(OC)cc12` [Quinine, reference compound] showed an activity at 950 µM [1, 4] of 118% and an activity at 1870 µM [1, 5] of 112%.

With `NC(=O)c1ccc[n+]([C@@H]2O[C@H](COP(=O)([O-])OP(=O)(O)OC[C@H]3O[C@@H](n4cnc5c(N)ncnc54)[C@H](OP(=O)(O)O)[C@@H]3O)[C@@H](O)[C@H]2O)c1` [nicotine amide adenine dinucleotide phosphate] the “suitability” value [2] was “not suitable”.

Compound `O=C[C@@H](O)[C@@H](O)[C@H](O)[C@H](O)CO` [D-Mannose] has an activity at 100000 µM [3] of 62.2%.

`[Cu+2]` [Cu^2+] was tested, and the “effect on the enzyme activity (in words)” value [1] was “inhibited; also recorded: Inhibition”.

In the case of `O=C1C(Cl)=CC(=Nc2ccc(O)cc2)C=C1Cl`, the “suitability” value [2] is reported as “oxidizes L-sorbosone to 2-keto-L-gulonic acid in the presence of electron acceptors”.

With `[Ca+2].[Cl-].[Cl-]` [CaCl2] the “Relative activity (%)” value ([1]; metal 0.0387 mM, None = 100) was 337%.

With `[Cl-].[Cl-].[Zn+2]` [ZnCl2] the “Relative activity (%)” value ([1]; metal 0.19 mM, None = 100) was 36.1% and the “Relative activity (%)” value ([1]; metal 0.374 mM, None = 100) was 21.1%.

With `CCCO` [n-Propanol] the activity at 100000 µM [3] was 0%.

With `O.O.O.O.O.O.[Cl][Cu][Cl]` [CuCl2.6H2 O] the “Relative activity (%)” value ([1]; metal 0.0387 mM, None = 100) was 100%, the “Relative activity (%)” value ([1]; metal 0.19 mM, None = 100) was 50% and the “Relative activity (%)” value ([1]; metal 0.374 mM, None = 100) was 0%.

In the case of `[Ti+4]` [Ti^4+], the “effect on the enzyme activity (in words)” value [1] is reported as “inhibited”.

Work on `O=C(CO)[C@@H](O)[C@H](O)[C@@H](O)CO` [L-Sorbose] yielded an activity at 100000 µM [3] of 0%.

For `O=C(O)CF` [Sodium fluoroacetate, reference compound], the activity at 950 µM [1, 4] was 118% and the activity at 1870 µM [1, 5] was 127%.

`[Fe+3]` [Fe^3+] was tested, and the “effect on the enzyme activity (in words)” value [1] was “inhibited”.

`O=CC(=O)[C@@H](O)[C@H](O)[C@H](O)CO` [D-Glucosone] was tested, and the activity at 100000 µM [3] was 77.8%.

In the case of `O=O` [oxygen], the “suitability” value [2] is reported as “does not work; also recorded: not suitable”.

For `O=C(O)CN(CCN(CC(=O)O)CC(=O)O)CC(=O)O` [EDTA, ethylenediamine tetraacetic acid, reference compound], the “effect on the enzyme activity (in words)” value [1] was “strongly inhibited; also recorded: Inhibition”, the activity at 194 µM [1, 6] was 3.8% and the activity at 480 µM [1, 6] was 2.6%. It also gave an activity at 980 µM [1, 6] of 1.6%.

With `O=C(CO)[C@@H](O)[C@H](O)[C@H](O)CO` [D-Fructose] the activity at 100000 µM [3] was 0%.

In the case of `O.O.O.O.O.O.O.O=S(=O)([O-])[O-].[Cu+2]` [CuSO4.7H2 O], the “Relative activity (%)” value ([1]; metal 0.19 mM, None = 100) is reported as 100% and the “Relative activity (%)” value ([1]; metal 0.374 mM, None = 100) is reported as 61.9%.

In the case of `O.O.O.O.O.O.O=S(=O)([O-])[O-].[Ni+2]` [NiSO4.6H2 O], the “Relative activity (%)” value ([1]; metal 0.375 mM, None = 100) is reported as 17.6%.

For `[Mg+2]` [Mg^2+], the “effect on the enzyme activity (in words)” value [1] was “inhibited”.

`O=CC(=O)[C@@H](O)[C@H](O)[C@@H](O)CO` [L-Sorbosone] gave an activity at 100000 µM [3] of 100%.

For `O=C[C@H](O)[C@H](O)[C@H](O)CO` [D-Ribose], the activity at 100000 µM [3] was 33.3%.
